Calls of active or inactive are those of the source. No cut-off for these calls is given here.
Columns and labels:
[1] = biological target: T1, Amyloid-beta precursor protein (Homo sapiens, UniProt P05067); experiment: Inhibition of amyloid beta (1 to 42) (unknown origin) self aggregation at 20 uM incubated for 48 hrs by thioflavin-T fluorescence method relative to control
Acetylcholinesterase [2] = biological target: T2, Acetylcholinesterase (Homo sapiens, UniProt P22303); experiment: Inhibition of human erythrocytes AChE by Ellman's method; type: cell-based, Erythrocyte
Cholinesterase [3] = biological target: T3, Cholinesterase (Homo sapiens, UniProt P06276)
Description: Inhibition of human serum BuChe by Ellman's method

[4] = biological target: T1, Amyloid-beta precursor protein
Description: Inhibition of amyloid beta (1 to 42) (unknown origin) self aggregation incubated for 48 hrs by thioflavin-T fluorescence method

Acetylcholinesterase [5] = biological target: T2, Acetylcholinesterase; experiment: Inhibition of human erythrocytes AChE using acetylthiocholine iodide as substrate preincubated for 4.5 mins followed by substrate addition measured after 2.5 mins by Ellman's method; parameters: species or system Erythrocyte
Acetylcholinesterase [6] = biological target: T2, Acetylcholinesterase; experiment: Inhibition of human erythrocytes AChE at 1 uM by Ellman's method relative to control; type: cell-based; settings: Erythrocyte
SH-SY5Y [7] = experiment: Cytotoxicity against human SH-SY5Y cells assessed as effect on cell viability at 0.1 to 1 uM after 48 hrs by MTT assay; type: cell-based; settings: dose 0.1-1 µM
[8] = Cytotoxicity against human SH-SY5Y cells assessed as cell viability at 10 uM after 48 hrs by MTT assay relative to control; type: cell-based; settings: read-out: Activity
SH-SY5Y [9] = experiment: Neuroprotective activity against amyloid beta (1 to 42) induced cell damage in human SH-SY5Y cells assessed as increase in cell viability at 1 to 10 uM measured after 48 hrs; type: functional, cell-based; settings: dose microM 1-10, time 48.0 hrs
SH-SY5Y [10] = experiment: Neuroprotective activity against amyloid beta (1 to 42) induced cell damage in human SH-SY5Y cells assessed as increase in cell viability at 0.1 uM measured after 48 hrs; type: functional, cell-based
[11] = biological target: T1, Amyloid-beta precursor protein; experiment: Potency index, ratio of resveratrol IC50 to test compound IC50 for inhibition of amyloid beta (1 to 42) (unknown origin) self aggregation
SH-SY5Y [12] = experiment: Cytotoxicity against human SH-SY5Y cells assessed as effect on cell viability at 0.1 uM after 48 hrs by MTT assay; type: cell-based
Cholinesterase [13] = biological target: T3, Cholinesterase; experiment: Inhibition of human serum BuChe at 1 uM by Ellman's method relative to control; type: cell-free

T1 sequence (P05067 whole entry): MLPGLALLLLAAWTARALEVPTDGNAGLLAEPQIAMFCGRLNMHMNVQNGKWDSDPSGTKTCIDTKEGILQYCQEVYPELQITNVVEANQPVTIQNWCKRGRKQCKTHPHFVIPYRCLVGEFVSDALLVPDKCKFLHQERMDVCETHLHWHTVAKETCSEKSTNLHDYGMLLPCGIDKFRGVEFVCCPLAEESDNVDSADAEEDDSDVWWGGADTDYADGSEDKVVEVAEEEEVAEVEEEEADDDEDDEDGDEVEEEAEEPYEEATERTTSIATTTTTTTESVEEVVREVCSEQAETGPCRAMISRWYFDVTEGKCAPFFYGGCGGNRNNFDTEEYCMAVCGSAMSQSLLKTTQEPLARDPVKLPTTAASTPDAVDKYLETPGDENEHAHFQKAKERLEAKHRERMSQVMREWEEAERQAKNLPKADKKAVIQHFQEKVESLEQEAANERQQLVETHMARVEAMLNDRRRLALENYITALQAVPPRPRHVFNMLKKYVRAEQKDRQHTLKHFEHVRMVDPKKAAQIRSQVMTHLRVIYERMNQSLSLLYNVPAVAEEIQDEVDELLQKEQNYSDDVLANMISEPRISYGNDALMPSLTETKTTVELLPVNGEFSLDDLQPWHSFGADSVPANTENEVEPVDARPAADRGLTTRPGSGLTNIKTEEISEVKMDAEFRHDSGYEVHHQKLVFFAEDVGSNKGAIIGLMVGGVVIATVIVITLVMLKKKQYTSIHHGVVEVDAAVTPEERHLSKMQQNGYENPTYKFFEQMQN
T3 sequence (P06276 whole entry): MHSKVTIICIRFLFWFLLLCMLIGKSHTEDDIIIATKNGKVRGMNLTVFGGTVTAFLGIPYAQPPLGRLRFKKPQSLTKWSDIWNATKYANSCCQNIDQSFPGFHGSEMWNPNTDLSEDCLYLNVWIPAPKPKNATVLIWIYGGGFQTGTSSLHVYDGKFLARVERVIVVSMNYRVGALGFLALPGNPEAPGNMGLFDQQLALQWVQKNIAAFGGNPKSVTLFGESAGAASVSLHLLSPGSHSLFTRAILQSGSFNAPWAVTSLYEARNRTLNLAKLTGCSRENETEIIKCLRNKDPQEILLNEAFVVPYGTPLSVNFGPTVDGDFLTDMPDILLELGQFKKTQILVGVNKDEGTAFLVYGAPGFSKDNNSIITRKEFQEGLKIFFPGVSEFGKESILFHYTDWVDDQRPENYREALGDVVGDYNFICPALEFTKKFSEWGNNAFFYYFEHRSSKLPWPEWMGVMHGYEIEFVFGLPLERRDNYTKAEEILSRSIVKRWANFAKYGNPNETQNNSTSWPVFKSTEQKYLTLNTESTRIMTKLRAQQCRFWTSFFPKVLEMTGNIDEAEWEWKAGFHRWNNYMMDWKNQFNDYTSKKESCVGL
T2 sequence (P22303 whole entry): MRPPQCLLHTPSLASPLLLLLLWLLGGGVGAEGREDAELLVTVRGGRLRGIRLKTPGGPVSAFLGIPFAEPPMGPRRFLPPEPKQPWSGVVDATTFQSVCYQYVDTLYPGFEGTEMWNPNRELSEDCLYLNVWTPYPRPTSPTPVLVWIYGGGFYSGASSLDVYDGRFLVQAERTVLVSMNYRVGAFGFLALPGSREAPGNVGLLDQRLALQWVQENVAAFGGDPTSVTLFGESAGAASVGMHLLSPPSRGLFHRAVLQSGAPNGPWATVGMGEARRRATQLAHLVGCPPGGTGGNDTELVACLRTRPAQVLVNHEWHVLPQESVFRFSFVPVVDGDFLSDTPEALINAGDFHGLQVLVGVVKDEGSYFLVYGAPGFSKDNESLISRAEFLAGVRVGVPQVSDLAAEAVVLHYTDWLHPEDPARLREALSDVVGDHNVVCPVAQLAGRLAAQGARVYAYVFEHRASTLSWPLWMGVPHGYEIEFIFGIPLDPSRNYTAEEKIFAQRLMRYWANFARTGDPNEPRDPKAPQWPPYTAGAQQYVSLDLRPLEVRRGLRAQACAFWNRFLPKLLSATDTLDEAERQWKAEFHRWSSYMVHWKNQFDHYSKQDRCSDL

Row | SMILES | inhibition [1] [%] | IC50 (Acetylcholinesterase [2]) [nM] | IC50 (Cholinesterase [3]) [nM] | IC50 [4] [nM] | inhibition (Acetylcholinesterase [6]) [%] | other results
1 | O=C(CCCN1CCC2c3ccccc3NC2C1)Oc1ccc(/C=C2\CCn3c2nc2ccccc2c3=O)cc1 (stereo not given) | 41.5 | 16.5 | 44.1 |  |  | 
2 | O=C(CCCCCN1CCC2c3ccccc3NC2C1)Oc1ccc(/C=C2\CCn3c2nc2ccccc2c3=O)cc1 (stereo not given) |  | 10.7 | 507 | 15100 |  | 
3 | O=c1c2cc(OCCCN3CCCCC3)ccc2nc2n1CCC2 |  |  |  |  |  | IC50 (Acetylcholinesterase [5]): 50 nM
4 | O=C(CCCN1CCC2c3ccccc3NC2C1)Nc1ccc(/C=C2\CCn3c2nc2ccccc2c3=O)cc1 (stereo not given) | 21.2 |  | 215 |  | 49.9 | 
5 | O=C(CCCCN1CCC2c3ccccc3NC2C1)Oc1ccc(/C=C2\CCn3c2nc2ccccc2c3=O)cc1 (stereo not given) |  | 1.08 | 422 | 2050 |  | Activity (SH-SY5Y [7]): Non-Toxic; viability at 48 h, 10 µM [8]: > 76%; Activity (SH-SY5Y [9]): Active; Activity (SH-SY5Y [10]): Active; Ratio IC50 [11]: 6
6 | O=C(CCCCCN1CCC2c3ccccc3NC2C1)Nc1ccc(/C=C2\CCn3c2nc2ccccc2c3=O)cc1 (stereo not given) |  | 153 | 486 | 18300 |  | 
7 | O=C(CCN1CCC2c3ccccc3NC2C1)Oc1ccc(/C=C2\CCn3c2nc2ccccc2c3=O)cc1 (stereo not given) |  | 0.93 | 69.2 | 19700 |  | viability at 48 h, 10 µM [8]: > 76%; Activity (SH-SY5Y [9]): Active; Activity (SH-SY5Y [12]): Non-Toxic
8 | O=C(CCN1CCC2c3ccccc3NC2C1)Nc1ccc(/C=C2\CCn3c2nc2ccccc2c3=O)cc1 (stereo not given) | 31.6 | 9.75 | 726 |  |  | 
9 | O=c1c2ccccc2nc2n1CCC2 | 20.7 |  |  |  | 29.7 | inhibition (Cholinesterase [13]): 40.5%
10 | O=C(CN1CCC2c3ccccc3NC2C1)Oc1ccc(/C=C2\CCn3c2nc2ccccc2c3=O)cc1 (stereo not given) | 38.8 | 216 | 238 |  |  | 
11 | O=C(CN1CCC2c3ccccc3NC2C1)Nc1ccc(/C=C2\CCn3c2nc2ccccc2c3=O)cc1 (stereo not given) | 37.5 |  | 596 |  | 21.6 | 
12 | O=C(O)C1NCCC2c3ccccc3NC12 (stereo not given) | 20.7 |  |  |  | 29.7 | inhibition (Cholinesterase [13]): 40.5%
13 | O=C(CCCCN1CCC2c3ccccc3NC2C1)Nc1ccc(/C=C2\CCn3c2nc2ccccc2c3=O)cc1 (stereo not given) | 27.9 | 98.3 | 32.8 |  |  | 
